According to patent publication US10118902B2 (Sanford Burnham Prebys Medical Discovery Institute, priority 2014, dated 2018):

These compounds were tested against neurotensin receptor 1 (NTR1) (Homo sapiens (Human), UniProt P30989) (assay: NTR1 dose response, high-content imaging beta-arrestin-GFP assay in NTR1-U2OS cells). Details: not given.
Assay type: cell-based
Design: scale not given here
Text: The cell lines utilized in the high-content imaging assays, which include the NTR1-, NTR2-, and GPR35-U2OS osteosarcomas, were obtained from the laboratory of Dr. Lawrence Barak at the Duke University Medical Center. The media used in the culture of the cell lines, as well as the assays themselves, consisted of Minimum Essential Medium (15-010-CM) and L-glutamine (25-005-CL) from Cellgro/Mediatech (Manassas, Va.), fetal bovine serum (SH30396.03) from Hyclone (Logan, Utah), penicillin-streptomycin solution (PS-20) from Omega Scientific in Tarzana, Calif., G418 (ant-gn-1) from Invivogen (San Diego, Calif.), and zeocin (R250-01) from Invitrogen (Carlsbad, Calif.). Cell lines were cultured in T225 tissue culture flasks (431082) supplied by Corning (Corning, N.Y.). Additional reagents employed include Dulbecco's Phosphate-Buffered Saline (DPBS) (21-031CV) from Cellgro/Mediatech, Trypsin-EDTA 0.05% (25300) from Invitrogen, paraformaldehyde (30528954) from Acros Organics (Geel, Belgium), Hoechst 33342 (H3570) from Invitrogen. The high-content assays were run in 1536-well plates (29326) supplied by Aurora Biotechnology (Poway, Calif.) and utilized aluminum plate seals (T592100) from E&K Scientific (Santa Clara, Calif.). […]
The high-content imaging based NTR1 primary screen in 1536-well format was utilized to assay the MLSMR library of chemical entities in the following manner. On day one, 4 uL of a cell suspension containing 350,000 NTR1-U2OS cells per mL is added to each well of a 1536-well assay plate. Cells are plated in MEM medium containing 2.5% Fetal Bovine Serum, 1% Penicillin/Streptomycin solution, 1% L-Glutamine, 400 ug/mL G418, and 200 ug/mL Zeocin. The assay plates are then incubated overnight at 37° C., under 5% CO2. Following the overnight incubation, a volume of 60 nL of the compounds at 2 mM in DMSO (final 20 μM, 1% DMSO) was transferred to columns 5-48 of the assay plates using a LabCyte Echo Liquid Handler. Next, 60 nL of DMSO were dispensed to columns 1-4, which served as the positive and neutral control wells. […] The assay plates were centrifuged on an Eppendorf 5810 centrifuge at 1000 rpm for 1 min to ensure even liquid levels in the wells of the assay plates. The assay plates were then returned to the incubator for 1 hour. Following the hour-long incubation at 37° C., the cells in each well were fixed with 4 uL of 6% paraformaldehyde added with a Multidrop Combi. The assay plates were centrifuged as before and incubated at room temperature for 1 hour. On the Kalypsys, plates were then aspirated down to 2.5 uL per well and washed twice with 11 uL per well of DPBS, followed by a final aspiration to 2.5 uL per well. On the Combi dispenser, 5 uL of 5 ug/mL Hoechst 33342 diluted in DPBS was added to each well of assay plates. The plates were again centrifuged as previously described, sealed, and incubated for at least 1 hour prior to being loaded on a PerkinElmer Opera QEHS.
Image acquisition was performed with a 45 plate capacity loader/stacker and the following settings: 40×0.6 NA air objective, acquisition camera set to 2-by-2 binning for an image size of 688 by 512 pixels, beta-arrestin-GFP acquired using 488 nm laser excitation and 540/75 nm emission filters, DAPI (nuclei) using 365 nm Xenon lamp excitation and 450/50 nm emission filters, 3 fields per well. Image analysis was performed using the Acapella Spot Detection Algorithm. For analysis settings and the metrics employed in the data analyses, please refer to supplemental information.
Compounds that were successfully confirmed in quadruplicate at 20 uM were then run in dose response in the primary assay. As with the single concentration hit confirmation, the assay was performed in an identical manner as the primary screen with the following modifications. […]

Sequence of neurotensin receptor 1 (NTR1) (P30989 whole entry, species assumed): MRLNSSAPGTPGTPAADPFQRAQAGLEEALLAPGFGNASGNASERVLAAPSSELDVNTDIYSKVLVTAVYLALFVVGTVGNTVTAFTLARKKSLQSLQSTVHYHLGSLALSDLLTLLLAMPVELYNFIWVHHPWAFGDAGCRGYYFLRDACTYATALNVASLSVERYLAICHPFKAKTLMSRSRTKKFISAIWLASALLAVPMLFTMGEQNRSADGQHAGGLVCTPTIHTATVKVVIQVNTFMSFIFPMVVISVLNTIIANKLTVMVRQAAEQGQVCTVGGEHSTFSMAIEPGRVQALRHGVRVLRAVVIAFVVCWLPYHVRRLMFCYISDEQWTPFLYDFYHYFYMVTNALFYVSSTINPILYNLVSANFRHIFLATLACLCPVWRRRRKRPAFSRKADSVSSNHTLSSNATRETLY

Row | EC50 | SMILES
1 | C or D | COc1ccccc1C1CCN(c2nc(C3CCC3)nc3ccc(N(C)C)cc23)CC1 [Example 42, {2-cyclobutyl-4-[4-(2-methoxy-phenyl)-piperidin-1-yl]-quinazolin-6-yl}-dimethyl-amine]

Same assay, conditions: read-out: EC50

Row | EC50 | SMILES
2 | < 0.5 µM | COc1ccccc1C1CCN(c2nc(C3(C)CC3)nc3ccc(N(C)CCO)cc23)CC1 [Example 22, 2-{[4-[4-(2-methoxy-phenyl)-piperidin-1-yl]-2-(1-methyl-cyclopropyl)-quinazolin-6-yl]-methyl-amino}-ethanol]
3 | > 10 µM | COc1ccccc1C1CCN(c2nc(C3(C)CC3)nc3ccc(N(C)CCN(C)C)cc23)CC1 [Example 23, N-[4-[4-(2-methoxy-phenyl)-piperidin-1-yl]-2-(1-methyl-cyclopropyl)-quinazolin-6-yl]-N,N′,N′-trimethyl-ethane-1,2-diamine]
4 | 2 to 10 µM | COc1ccccc1C1CCN(c2nc(C3(C)CC3)nc3ccc(N(C)CCN4CCCC4)cc23)CC1 [Example 24, [4-[4-(2-methoxy-phenyl)-piperidin-1-yl]-2-(1-methyl-cyclopropyl)-quinazolin-6-yl]-methyl-(2-pyrrolidin-1-yl-ethyl)-amine]
5 | 2 to 10 µM | CN(C)c1ccccc1C1CCN(c2nc(C3(C)CC3)nc3ccc(N(C)CCO)cc23)CC1 [Example 25, 2-{[4-[4-(2-dimethylamino-phenyl)-piperidin-1-yl]-2-(1-methyl-cyclopropyl)-quinazolin-6-yl]-methyl-amino}-ethanol]
6 | > 10 µM | COCCN(C)c1ccc2nc(C3(C)CC3)nc(N3CCC(c4ccccc4N(C)C)CC3)c2c1 [Example 26, [4-[4-(2-dimethylamino-phenyl)-piperidin-1-yl]-2-(1-methyl-cyclopropyl)-quinazolin-6-yl]-(2-methoxy-ethyl)-methyl-amine]
7 | > 10 µM | CN(C)CCN(C)c1ccc2nc(C3(C)CC3)nc(N3CCC(c4ccccc4N(C)C)CC3)c2c1 [Example 28, N-[4-[4-(2-dimethylamino-phenyl)-piperidin-1-yl]-2-(1-methyl-cyclopropyl)-quinazolin-6-yl]-N,N′,N′-trimethyl-ethane-1,2-diamine]
8 | 2 to 10 µM | CN(CCO)c1ccc2nc(C3(C)CC3)nc(N3CCC(c4ccccc4N4CCC4)CC3)c2c1 [Example 30, 2-{[4-[4-(2-azetidin-1-yl-phenyl)-piperidin-1-yl]-2-(1-methyl-cyclopropyl)-quinazolin-6-yl]-methyl-amino}-ethanol]
9 | > 10 µM | COCCN(C)c1ccc2nc(C3(C)CC3)nc(N3CCC(c4ccccc4N4CCC4)CC3)c2c1 [Example 31, [4-[4-(2-azetidin-1-yl-phenyl)-piperidin-1-yl]-2-(1-methyl-cyclopropyl)-quinazolin-6-yl]-(2-methoxy-ethyl)-methyl-amine]
10 | 2 to 10 µM | COCCN(C)c1ccc2nc(C3(C)CC3)nc(N3CCC(c4ccccc4OC)CC3)c2c1 [Example 33, N-(2-methoxyethyl)-4-(4-(2-methoxyphenyl)piperidin-1-yl)-N-methyl-2-(1-methylcyclopropyl)quinazolin-6-amine]
11 | 2 to 10 µM | COc1ccccc1C1CCN(c2nc(C3(C)CC3)nc3ccc(N(C)CCN4CCOCC4)cc23)CC1 [Example 34, 4-(4-(2-methoxyphenyl)piperidin-1-yl)-N-methyl-2-(1-methylcyclopropyl)-N-(2-morpholinoethyl) quinazolin-6-amine]
12 | > 10 µM | COCCN(C)c1ccc2nc(C3CCCC3)nc(N3CCC(c4ccccc4OC)CC3)c2c1 [Example 39, {2-cyclopentyl-4-[4-(2-methoxy-phenyl)-piperidin-1-yl]-quinazolin-6-yl}-(2-methoxy-ethyl)-methyl-amine]
13 | 2 to 10 µM | COCCN(C)c1ccc2nc(C3CCC3)nc(N3CCC(c4ccccc4OC)CC3)c2c1 [Example 44]
14 | > 10 µM | CCCN(C)c1ccc2nc(C3CCC3)nc(N3CCC(c4ccccc4OC)CC3)c2c1 [Example 45, {2-cyclobutyl-4-[4-(2-methoxy-phenyl)-piperidin-1-yl]-quinazolin-6-yl}-methyl-propyl-amine]
15 | < 0.5 µM | COc1ccccc1C1CCN(c2nc(C3(C(F)(F)F)CC3)nc3ccc(N(C)CCO)cc23)CC1 [Example 47, 2-{[4-[4-(2-methoxy-phenyl)-piperidin-1-yl]-2-(1-trifluoromethyl-cyclopropyl)-quinazolin-6-yl]-methyl-amino}-ethanol]

The next lines start with the compound.

Row | SMILES | EC50
16 | CN(C)c1ccccc1C1CCN(c2nc(C3(C)CC3)nc3ccc(N(C)CCN4CCOCC4)cc23)CC1 [Example 27] | > 10 µM
17 | CN(C)c1ccccc1C1CCN(c2nc(C3(C)CC3)nc3ccc(N(C)CCN4CCCC4)cc23)CC1 [Example 29, [4-[4-(2-dimethylamino-phenyl)-piperidin-1-yl]-2-(1-methyl-cyclopropyl)-quinazolin-6-yl]-methyl-(2-pyrrolidin-1-yl-ethyl)-amine] | > 10 µM
18 | CN(CCN1CCOCC1)c1ccc2nc(C3(C)CC3)nc(N3CCC(c4ccccc4N4CCC4)CC3)c2c1 [Example 32, [4-[4-(2-azetidin-1-yl-phenyl)-piperidin-1-yl]-2-(1-methyl-cyclopropyl)-quinazolin-6-yl]-methyl-(2-morpholin-4-yl-ethyl)-amine] | > 10 µM
19 | CN(C)CCN(C)c1ccc2nc(C3(C)CC3)nc(N3CCC(c4ccccc4N4CCC4)CC3)c2c1 [Example 35, N-[4-[4-(2-azetidin-1-yl-phenyl)-piperidin-1-yl]-2-(1-methyl-cyclopropyl)-quinazolin-6-yl]-N,N′,N′-trimethyl-ethane-1,2-diamine] | > 10 µM
20 | CN(CCN1CCCC1)c1ccc2nc(C3(C)CC3)nc(N3CCC(c4ccccc4N4CCC4)CC3)c2c1 [Example 36, [4-[4-(2-azetidin-1-yl-phenyl)-piperidin-1-yl]-2-(1-methyl-cyclopropyl)-quinazolin-6-yl]-methyl-(2-pyrrolidin-1-yl-ethyl)-amine] | > 10 µM
21 | COc1ccccc1C1CCN(c2nc(C3CCCC3)nc3ccc(N(C)C)cc23)CC1 [Example 37, {2-cyclopentyl-4-[4-(2-methoxy-phenyl)-piperidin-1-yl]-quinazolin-6-yl}-dimethyl-amine] | > 10 µM
22 | COc1ccccc1C1CCN(c2nc(C3CCCC3)nc3ccc(N(C)CCO)cc23)CC1 [Example 38, 2-({2-cyclopentyl-4-[4-(2-methoxy-phenyl)-piperidin-1-yl]-quinazolin-6-yl}-methyl-amino)-ethanol] | 2 to 10 µM
23 | CCCN(C)c1ccc2nc(C3CCCC3)nc(N3CCC(c4ccccc4OC)CC3)c2c1 [Example 40] | > 10 µM
24 | COc1ccccc1C1CCN(c2nc(C3CCCC3)nc3ccc(N(C)CCN4CCOCC4)cc23)CC1 [Example 41] | > 10 µM
25 | COc1ccccc1C1CCN(c2nc(C3CCC3)nc3ccc(N(C)CCO)cc23)CC1 [Example 43, 2-({2-cyclobutyl-4-[4-(2-methoxy-phenyl)-piperidin-1-yl]-quinazolin-6-yl}-methyl-amino)-ethanol] | 0.5 to 2 µM
26 | COc1ccccc1C1CCN(c2nc(C3CCC3)nc3ccc(N(C)CCN4CCOCC4)cc23)CC1 [Example 46, {2-cyclobutyl-4-[4-(2-methoxy-phenyl)-piperidin-1-yl]-quinazolin-6-yl}-methyl-(2-morpholin-4-yl-ethyl)-amine] | 2 to 10 µM
27 | COc1ccccc1C1CCN(c2nc(C3(C(F)(F)F)CC3)nc3ccc(N(C)CCN4CCOCC4)cc23)CC1 [Example 48] | 2 to 10 µM
28 | CN(C)c1ccccc1C1CCN(c2nc(C3(C(F)(F)F)CC3)nc3ccc(N(C)CCO)cc23)CC1 [Example 49, 2-{[4-[4-(2-dimethylamino-phenyl)-piperidin-1-yl]-2-(1-trifluoromethyl-cyclopropyl)-quinazolin-6-yl]-methyl-amino}-ethanol] | 0.5 to 2 µM
